Data from the supplement of paper PMC10307832.

How the values were obtained:
Assay in all cases: relative viability (nuclei count vs DMSO), 5 days (fraction); higher = more cells survive
NCI-H727 = test system: NCI-H727
Outline: (§1)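 One day after seeding in 1536-well plates, lung cancer cell lines were dosed by pin tool. Dosing was either single-drug or a fixed anchor-drug dose plus five library-drug doses (not always all listed) in √10 steps. After 5 days, nuclei were stained in one fix-and-stain step and counted on 4× images, and relative viability is the nuclei count of treated wells over that of vehicle wells, given as the median of duplicate plates.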

LCLC-97TM1 = test system: LCLC-97TM1
Outline: as §1

NCI-H1792 = test system: NCI-H1792
Outline: as §1

H3255 = test system: H3255
Outline: as §1

NCI-H661 = test system: NCI-H661
Outline: as §1

A-427 = test system: A-427
Outline: as §1

NCI-H460 = test system: NCI-H460
Outline: as §1

NCI-H1651 = test system: NCI-H1651
Outline: as §1

NCI-H441 = test system: NCI-H441
Outline: as §1

NCI-H2023 = test system: NCI-H2023
Outline: as §1

LC-2-ad = test system: LC-2-ad
Outline: as §1

NCI-H650 = test system: NCI-H650
Outline: as §1

NCI-H520 = test system: NCI-H520
Outline: as §1

ABC-1 = test system: ABC-1
Outline: as §1

201T = test system: 201T
Outline: as §1

NCI-H1944 = test system: NCI-H1944
Outline: as §1

PC-3 [JPC-3] = test system: PC-3 [JPC-3]
Outline: as §1

BEN = test system: BEN
Outline: as §1

NCI-H596 = test system: NCI-H596
Outline: as §1

CAL-12T = test system: CAL-12T
Outline: as §1

NCI-H2087 = test system: NCI-H2087
Outline: as §1

NCI-H1915 = test system: NCI-H1915
Outline: as §1

SMILES: Oc1nc(-c2ccc(C(F)(F)F)cc2)nc2c1CSCC2 [XAV939] + Cc1nc(NC(=O)N2CCC[C@H]2C(N)=O)sc1-c1ccnc(C(C)(C)C(F)(F)F)c1 [Alpelisib] (partner 2 µM)
- relative viability (NCI-H727; first compound 0.08 µM): 0.656
- relative viability (NCI-H727; first compound 0.253 µM): 0.38
- relative viability (NCI-H727; first compound 0.8 µM): 0.626
- relative viability (NCI-H727; first compound 2.53 µM): 0.65
- relative viability (LCLC-97TM1; first compound 0.08 µM): 0.256
- relative viability (LCLC-97TM1; first compound 0.253 µM): 0.232
- relative viability (LCLC-97TM1; first compound 0.8 µM): 0.252
- relative viability (LCLC-97TM1; first compound 2.53 µM): 0.243
- relative viability (NCI-H1792; first compound 0.08 µM): 0.924
- relative viability (NCI-H1792; first compound 0.253 µM): 0.667
- relative viability (NCI-H1792; first compound 0.8 µM): 0.671
- relative viability (NCI-H1792; first compound 2.53 µM): 0.594
- relative viability (H3255; first compound 0.08 µM): 0.965
- relative viability (H3255; first compound 0.253 µM): 0.709
- relative viability (H3255; first compound 0.8 µM): 0.414
- relative viability (H3255; first compound 2.53 µM): 0.522
- relative viability (NCI-H661; first compound 0.08 µM): 0.655
- relative viability (NCI-H661; first compound 0.253 µM): 0.621
- relative viability (NCI-H661; first compound 0.8 µM): 0.833
- relative viability (NCI-H661; first compound 2.53 µM): 0.492
- relative viability (A-427; first compound 0.08 µM): 1.12
- relative viability (A-427; first compound 0.253 µM): 1.03
- relative viability (A-427; first compound 0.8 µM): 1.03
- relative viability (A-427; first compound 2.53 µM): 1.02
- relative viability (NCI-H460; first compound 0.08 µM): 0.679
- relative viability (NCI-H460; first compound 0.253 µM): 0.36
- relative viability (NCI-H460; first compound 0.8 µM): 0.53
- relative viability (NCI-H460; first compound 2.53 µM): 0.359
- relative viability (NCI-H1651; first compound 0.08 µM): 0.979
- relative viability (NCI-H1651; first compound 0.253 µM): 0.841
- relative viability (NCI-H1651; first compound 0.8 µM): 0.978
- relative viability (NCI-H1651; first compound 2.53 µM): 0.891
- relative viability (NCI-H441; first compound 0.08 µM): 0.687
- relative viability (NCI-H441; first compound 0.253 µM): 0.486
- relative viability (NCI-H441; first compound 0.8 µM): 0.742
- relative viability (NCI-H441; first compound 2.53 µM): 0.657
- relative viability (NCI-H2023; first compound 0.08 µM): 0.572
- relative viability (NCI-H2023; first compound 0.253 µM): 0.524
- relative viability (NCI-H2023; first compound 0.8 µM): 0.525
- relative viability (NCI-H2023; first compound 2.53 µM): 0.412
- relative viability (LC-2-ad; first compound 0.08 µM): 0.901
- relative viability (LC-2-ad; first compound 0.253 µM): 0.711
- relative viability (LC-2-ad; first compound 0.8 µM): 0.848
- relative viability (LC-2-ad; first compound 2.53 µM): 0.804
- relative viability (NCI-H650; first compound 0.08 µM): 1.3
- relative viability (NCI-H650; first compound 0.253 µM): 0.959
- relative viability (NCI-H650; first compound 0.8 µM): 1.15
- relative viability (NCI-H650; first compound 2.53 µM): 0.864
- relative viability (NCI-H520; first compound 0.08 µM): 0.842
- relative viability (NCI-H520; first compound 0.253 µM): 0.755
- relative viability (NCI-H520; first compound 0.8 µM): 0.916
- relative viability (NCI-H520; first compound 2.53 µM): 0.648
- relative viability (ABC-1; first compound 0.08 µM): 1.14
- relative viability (ABC-1; first compound 0.253 µM): 0.811
- relative viability (ABC-1; first compound 0.8 µM): 0.965
- relative viability (ABC-1; first compound 2.53 µM): 0.428
- relative viability (201T; first compound 0.08 µM): 1
- relative viability (201T; first compound 0.253 µM): 0.875
- relative viability (201T; first compound 0.8 µM): 0.947
- relative viability (201T; first compound 2.53 µM): 0.902
- relative viability (NCI-H1944; first compound 0.08 µM): 0.939
- relative viability (NCI-H1944; first compound 0.253 µM): 0.765
- relative viability (NCI-H1944; first compound 0.8 µM): 0.751
- relative viability (NCI-H1944; first compound 2.53 µM): 0.786
- relative viability (PC-3 [JPC-3]; first compound 0.08 µM): 1
- relative viability (PC-3 [JPC-3]; first compound 0.253 µM): 0.962
- relative viability (PC-3 [JPC-3]; first compound 0.8 µM): 1.07
- relative viability (PC-3 [JPC-3]; first compound 2.53 µM): 0.962
- relative viability (BEN; first compound 0.08 µM): 1.08
- relative viability (BEN; first compound 0.253 µM): 0.921
- relative viability (BEN; first compound 0.8 µM): 1.01
- relative viability (NCI-H596; first compound 0.08 µM): 0.456
- relative viability (NCI-H596; first compound 0.253 µM): 0.587
- relative viability (NCI-H596; first compound 0.8 µM): 0.534
- relative viability (NCI-H596; first compound 2.53 µM): 0.493
- relative viability (CAL-12T; first compound 0.08 µM): 1.42
- relative viability (CAL-12T; first compound 0.253 µM): 0.932
- relative viability (CAL-12T; first compound 0.8 µM): 1.2
- relative viability (CAL-12T; first compound 2.53 µM): 0.73
- relative viability (NCI-H2087; first compound 0.08 µM): 1.24
- relative viability (NCI-H2087; first compound 0.253 µM): 0.914
- relative viability (NCI-H2087; first compound 0.8 µM): 1.09
- relative viability (NCI-H2087; first compound 2.53 µM): 0.889
- relative viability (NCI-H1915; first compound 0.08 µM): 1.08
- relative viability (NCI-H1915; first compound 0.253 µM): 1.07
- relative viability (NCI-H1915; first compound 0.8 µM): 1.03
- relative viability (NCI-H1915; first compound 2.53 µM): 1.08
